In ChEMBL document CHEMBL4177573 (Bioorg Med Chem, 2017):
Square brackets hold non-standard residues; d marks the D form. Peptide text beside a SMILES is read from it. 4Pal = N[C@@H](Cc1ccncc1)C(=O)O; Cha = N[C@@H](CC1CCCCC1)C(=O)O; Aib = CC(C)(N)C(=O)O

What was measured:
[1] = target: T1, Neuropeptide Y receptor type 2 (Homo sapiens, UniProt P49146); assay: Agonist activity at human neuropeptide Y2 receptor expressed in CHO cell membranes assessed as stimulation of [35S]GTPgammaS binding incubated for 120 mins by liquid scintillation counting method; type: functional
T1 sequence (P49146 whole entry): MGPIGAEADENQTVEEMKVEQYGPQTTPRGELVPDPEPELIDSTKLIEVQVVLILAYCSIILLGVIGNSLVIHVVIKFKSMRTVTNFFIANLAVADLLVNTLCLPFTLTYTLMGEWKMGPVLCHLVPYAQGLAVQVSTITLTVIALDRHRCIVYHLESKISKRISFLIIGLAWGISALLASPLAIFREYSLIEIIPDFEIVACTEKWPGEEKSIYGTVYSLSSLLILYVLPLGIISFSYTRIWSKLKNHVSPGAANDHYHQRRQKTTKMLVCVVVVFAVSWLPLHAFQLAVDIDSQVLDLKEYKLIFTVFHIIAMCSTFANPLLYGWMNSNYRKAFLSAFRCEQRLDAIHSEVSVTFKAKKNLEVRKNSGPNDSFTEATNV

Mus musculus [2] = assay: Anorectic activity in C57BL/6J mouse assessed as inhibition of food intake at 1 mg/kg/day, sc for 3 days dosed as continuous administration by infusion using osmotic pump; type: functional; settings: 72 h
[3] = target: T1, Neuropeptide Y receptor type 2; assay: Displacement of [125I]-PYY from human neuropeptide Y2 receptor expressed in CHO cell membranes incubated for 60 mins by TopCount based method
Mus musculus [4] = assay: Anorectic activity in C57BL/6J mouse assessed as inhibition of food intake at 0.3 mg/kg/day, sc for 3 days dosed as continuous administration by infusion using osmotic pump; type: functional; settings: 72 h
[5] = AUC (0 to 24 hrs) in C57BL/6J mouse at 1 mg/kg, sc measured during 5 mins to 24 hrs by LC/MS/MS method; type: ADME, organism-based; design: time < 24 hr, dose 1 mg/kg, route subcutaneous; settings: in vivo
Mus musculus [6] = assay: Anorectic activity in C57BL/6J mouse assessed as inhibition of food intake at 0.3 mg/kg/day, sc dosed as […] and measured after 24 hrs; type: functional
[7] = Cmax in C57BL/6J mouse at 1 mg/kg, sc measured during 5 mins to 24 hrs by LC/MS/MS method; type: ADME, organism-based; design: dose 1 mg/kg, route subcutaneous; settings: in vivo
[8] = MRT in C57BL/6J mouse at 1 mg/kg, sc measured during 5 mins to 24 hrs by LC/MS/MS method; type: ADME, organism-based; settings: in vivo
Mus musculus [9] = assay: Anorectic activity in C57BL/6J mouse assessed as inhibition of food intake at 0.03 mg/kg/day, sc for 3 days dosed as continuous administration by infusion using osmotic pump; type: functional; settings: 72 h
[10] = Volume of distribution at steady state in C57BL/6J mouse at 1 mg/kg, iv measured during 5 mins to 24 hrs by LC/MS/MS method; type: ADME, organism-based; settings: in vivo, read-out: Vdss
Mus musculus [11] = assay: Anorectic activity in C57BL/6J mouse assessed as inhibition of food intake at 0.3 mg/kg/day, sc dosed as […] and measured after 12 hrs; type: functional
[12] = Total clearance in C57BL/6J mouse at 1 mg/kg, iv measured during 5 mins to 24 hrs by LC/MS/MS method; type: ADME, organism-based; settings: in vivo
[13] = Bioavailability in C57BL/6J mouse at 1 mg/kg, sc measured during 5 mins to 24 hrs by LC/MS/MS method; type: ADME, organism-based; settings: in vivo
[14] = Tmax in C57BL/6J mouse at 1 mg/kg, sc measured during 5 mins to 24 hrs by LC/MS/MS method; type: ADME, organism-based; settings: in vivo
[15] = AUC (0 to 24 hrs) in C57BL/6J mouse at 1 mg/kg, iv measured during 5 mins to 24 hrs by LC/MS/MS method; type: ADME, organism-based; design: dose 1 mg/kg, time < 24 hr, route intravenous; settings: in vivo
[16] = MRT in C57BL/6J mouse at 1 mg/kg, iv measured during 5 mins to 24 hrs by LC/MS/MS method; type: ADME, organism-based; settings: in vivo
Mus musculus [17] = assay: Drug level in C57BL/6J mouse at 1 mg/kg, iv measured during 5 mins to 24 hrs by LC/MS/MS method; type: ADME, organism-based; settings: in vivo, read-out: Drug uptake
Mus musculus [18] = assay: Anorectic activity in C57BL/6J mouse assessed as inhibition of food intake at 0.1 mg/kg/day, sc for 3 days dosed as continuous administration by infusion using osmotic pump; type: functional; settings: 72 h

Row | Compound | EC50 [1] | inhibition in vivo at 1 mg/kg/day (Mus musculus [2]) | IC50 [3] | inhibition in vivo at 0.03 mg/kg/day (Mus musculus [9]) | inhibition in vivo at 0.1 mg/kg/day (Mus musculus [18]) | further results
1 | CC(C)C[C@H](NC(=O)[C@H](CC(N)=O)NC(=O)[C@H](CC1CCCCC1)NC(=O)[C@H](CC1CCCCC1)NC(=O)[C@H](Cc1cnc[nH]1)NC(=O)[C@H](CCCNC(=N)N)NC(=O)[C@H]1CCCN1C(=O)[C@H](CO)NC(=O)CCC(=O)O)C(=O)NC(C)(C)C(=O)N[C@H](C(=O)N[C@@H](CCCNC(=N)N)C(=O)N[C@@H](CCC(N)=O)C(=O)N[C@@H](CCCNC(=N)N)C(=O)N[C@@H](CC1CCCCC1)C(N)=O)[C@@H](C)O | 400 pM | 103% | 2300 pM | – | – | –
2 | CC[C@@](C)(NC(=O)[C@H]1CCCN1C(=O)[C@H](CO)NC(C)=O)C(=O)N[C@@H](Cc1cnc[nH]1)C(=O)N[C@@H](CC1CCCCC1)C(=O)N[C@@H](CC1CCCCC1)C(=O)N[C@@H](CC(N)=O)C(=O)N[C@@H](CC(C)C)C(=O)NC(C)(C)C(=O)N[C@H](C(=O)N[C@@H](CCCNC(=N)N)C(=O)N[C@@H](CCC(N)=O)C(=O)N[C@@H](CCCNC(=N)N)C(=O)N[C@@H](CC1CCCCC1)C(N)=O)[C@@H](C)O | 500 pM | – | 3800 pM | – | – | inhibition in vivo at 0.3 mg/kg/day (Mus musculus [4]): 33%
3 | CC[C@](C)(NC(=O)[C@H]1CCCN1C(=O)[C@H](CO)NC(C)=O)C(=O)N[C@@H](Cc1ccncc1)C(=O)N[C@@H](CC1CCCCC1)C(=O)NC(C)(C)C(=O)N[C@@H](CC(N)=O)C(=O)N[C@@H](CCCCN)C(=O)NC(C)(C)C(=O)N[C@H](C(=O)N[C@@H](CCCNC(=N)N)C(=O)N[C@@H](CCC(N)=O)C(=O)N[C@@H](CCCNC(=N)N)C(=O)N[C@@H](CC1CCCCC1)C(N)=O)[C@@H](C)O | 280 pM | – | 1800 pM | 46% | 68% | AUC(0-t) at 24 h [5]: 0.125 µM·h; inhibition in vivo at 0.3 mg/kg/day (Mus musculus [6]): 7%; Cmax [7]: 227 nM; MRT [8]: 22.2 min; Vd [10]: 0.5 L/kg; inhibition in vivo at 0.3 mg/kg/day (Mus musculus [11]): 22%; clearance [12]: 41 mL/min/kg; bioavailability [13]: 53.7%; Tmax [14]: 15 min; AUC(0-t) at 24 h [15]: 0.232 µM·h; MRT [16]: 12 min; concentration (Mus musculus [17]): 1270 nM
4 | CC(=O)N[C@@H](CO)C(=O)N1CCC[C@@H]1C(=O)N[C@@H](CCCNC(=N)N)C(=O)N[C@@H](Cc1ccncc1)C(=O)N[C@@H](CC1CCCCC1)C(=O)NC(C)(C)C(=O)N[C@@H](CC(N)=O)C(=O)N[C@@H](CCCCN)C(=O)NC(C)(C)C(=O)N[C@H](C(=O)N[C@@H](CCCNC(=N)N)C(=O)N[C@@H](CCC(N)=O)C(=O)N[C@@H](CCCNC(=N)N)C(=O)N[C@@H](CC1CCCCC1)C(N)=O)[C@@H](C)O | – | – | – | 38% | 80% | inhibition in vivo at 0.3 mg/kg/day (Mus musculus [6]): 15%; inhibition in vivo at 0.3 mg/kg/day (Mus musculus [4]): 112%; inhibition in vivo at 0.3 mg/kg/day (Mus musculus [11]): 35%; concentration (Mus musculus [17]): 1060 nM
5 | CC(=O)N[C@@H](CO)C(=O)NC(C)(C)C(=O)N[C@@H](CCCNC(=N)N)C(=O)N[C@@H](Cc1ccncc1)C(=O)N[C@@H](CC1CCCCC1)C(=O)NC(C)(C)C(=O)N[C@@H](CC(N)=O)C(=O)N[C@@H](CCCCN)C(=O)NC(C)(C)C(=O)N[C@H](C(=O)N[C@@H](CCCNC(=N)N)C(=O)N[C@@H](CCC(N)=O)C(=O)N[C@@H](CCCNC(=N)N)C(=O)N[C@@H](CC1CCCCC1)C(N)=O)[C@@H](C)O (Ac-S[Aib]R[4Pal][Cha][Aib]NK[Aib]TRQR[Cha]-NH2) | 130 pM | – | 410 pM | 36% | 95% | –
6 | CC[C@](C)(NC(=O)[C@H]1CCCN1C(=O)[C@H](CO)NC(C)=O)C(=O)N[C@@H](Cc1cnc[nH]1)C(=O)N[C@@H](CC1CCCCC1)C(=O)N[C@@H](CC1CCCCC1)C(=O)N[C@@H](CC(N)=O)C(=O)N[C@@H](CC(C)C)C(=O)NC(C)(C)C(=O)N[C@H](C(=O)N[C@@H](CCCNC(=N)N)C(=O)N[C@@H](CCC(N)=O)C(=O)N[C@@H](CCCNC(=N)N)C(=O)N[C@@H](CC1CCCCC1)C(N)=O)[C@@H](C)O | 2000 pM | – | 16000 pM | – | – | inhibition in vivo at 0.3 mg/kg/day (Mus musculus [4]): 2%
7 | CC(C)C[C@H](NC(=O)[C@H](CC(N)=O)NC(=O)[C@H](CC1CCCCC1)NC(=O)[C@H](CC1CCCCC1)NC(=O)[C@H](Cc1cnc[nH]1)NC(=O)[C@H](CCCNC(=N)N)NC(=O)[C@H]1CCCN1C(=O)[C@H](CO)NC(=O)c1ccccc1)C(=O)NC(C)(C)C(=O)N[C@H](C(=O)N[C@@H](CCCNC(=N)N)C(=O)N[C@@H](CCC(N)=O)C(=O)N[C@@H](CCCNC(=N)N)C(=O)N[C@@H](CC1CCCCC1)C(N)=O)[C@@H](C)O | 800 pM | 7% | 1500 pM | – | – | –
8 | CC(C)C[C@H](NC(=O)[C@H](CC(N)=O)NC(=O)[C@H](CC1CCCCC1)NC(=O)[C@H](CC1CCCCC1)NC(=O)[C@H](Cc1cnc[nH]1)NC(=O)[C@H](CCCNC(=N)N)NC(=O)[C@H]1CCCN1C(=O)[C@H](CO)NC(=O)C(C)C)C(=O)NC(C)(C)C(=O)N[C@H](C(=O)N[C@@H](CCCNC(=N)N)C(=O)N[C@@H](CCC(N)=O)C(=O)N[C@@H](CCCNC(=N)N)C(=O)N[C@@H](CC1CCCCC1)C(N)=O)[C@@H](C)O | 490 pM | 46% | 1300 pM | – | – | –
9 | CC[C@@](C)(NC(=O)[C@H](CCCCN)NC(=O)[C@H](CC(N)=O)NC(=O)C(C)(C)NC(=O)[C@H](CC1CCCCC1)NC(=O)[C@H](Cc1ccncc1)NC(=O)[C@H](CCCNC(=N)N)NC(=O)[C@H]1CCCN1C(=O)[C@H](CO)NC(C)=O)C(=O)N[C@H](C(=O)N[C@@H](CCCNC(=N)N)C(=O)N[C@@H](CCC(N)=O)C(=O)N[C@@H](CCCNC(=N)N)C(=O)N[C@@H](CC1CCCCC1)C(N)=O)[C@@H](C)O | 110 pM | – | 270 pM | 34% | 86% | –
10 | CC[C@](C)(NC(=O)[C@H](CC1CCCCC1)NC(=O)[C@H](Cc1ccncc1)NC(=O)[C@H](CCCNC(=N)N)NC(=O)[C@H]1CCCN1C(=O)[C@H](CO)NC(C)=O)C(=O)N[C@@H](CC(N)=O)C(=O)N[C@@H](CCCCN)C(=O)NC(C)(C)C(=O)N[C@H](C(=O)N[C@@H](CCCNC(=N)N)C(=O)N[C@@H](CCC(N)=O)C(=O)N[C@@H](CCCNC(=N)N)C(=O)N[C@@H](CC1CCCCC1)C(N)=O)[C@@H](C)O | 140 pM | – | 160 pM | 36% | 85% | inhibition in vivo at 0.3 mg/kg/day (Mus musculus [6]): 23%; inhibition in vivo at 0.3 mg/kg/day (Mus musculus [11]): 41%
11 | CC(=O)N[C@@H](CO)C(=O)N1CCC[C@@H]1C(=O)N[C@@H](CCCNC(=N)N)C(=O)N[C@@H](Cc1cnc[nH]1)C(=O)N[C@@H](CC1CCCCC1)C(=O)N[C@@H](CC1CCCCC1)C(=O)N[C@@H](CC(N)=O)C(=O)N[C@@H](CC(C)C)C(=O)NC(C)(C)C(=O)N[C@H](C(=O)N[C@@H](CCCNC(=N)N)C(=O)N[C@@H](CCC(N)=O)C(=O)N[C@@H](CCCNC(=N)N)C(=O)N[C@@H](CC1CCCCC1)C(N)=O)[C@@H](C)O (Ac-S[dP]RH[Cha][Cha]NL[Aib]TRQR[Cha]-NH2) | – | 33% | – | – | – | –
